Data on 22 compounds can be found in patent US20220388964A1 (HiberCell, Inc., priority 2019, published 2022).

Where only a bound is given, the exact number is not on record here.

One experiment deals with T1, GCN2 (Homo sapiens, UniProt Q9P2K8). The experiment is described as follows: TR-FRET assay for inhibition of GCN2 (Example 107, for Examples 40-72).
T1 sequence (Q9P2K8 whole entry): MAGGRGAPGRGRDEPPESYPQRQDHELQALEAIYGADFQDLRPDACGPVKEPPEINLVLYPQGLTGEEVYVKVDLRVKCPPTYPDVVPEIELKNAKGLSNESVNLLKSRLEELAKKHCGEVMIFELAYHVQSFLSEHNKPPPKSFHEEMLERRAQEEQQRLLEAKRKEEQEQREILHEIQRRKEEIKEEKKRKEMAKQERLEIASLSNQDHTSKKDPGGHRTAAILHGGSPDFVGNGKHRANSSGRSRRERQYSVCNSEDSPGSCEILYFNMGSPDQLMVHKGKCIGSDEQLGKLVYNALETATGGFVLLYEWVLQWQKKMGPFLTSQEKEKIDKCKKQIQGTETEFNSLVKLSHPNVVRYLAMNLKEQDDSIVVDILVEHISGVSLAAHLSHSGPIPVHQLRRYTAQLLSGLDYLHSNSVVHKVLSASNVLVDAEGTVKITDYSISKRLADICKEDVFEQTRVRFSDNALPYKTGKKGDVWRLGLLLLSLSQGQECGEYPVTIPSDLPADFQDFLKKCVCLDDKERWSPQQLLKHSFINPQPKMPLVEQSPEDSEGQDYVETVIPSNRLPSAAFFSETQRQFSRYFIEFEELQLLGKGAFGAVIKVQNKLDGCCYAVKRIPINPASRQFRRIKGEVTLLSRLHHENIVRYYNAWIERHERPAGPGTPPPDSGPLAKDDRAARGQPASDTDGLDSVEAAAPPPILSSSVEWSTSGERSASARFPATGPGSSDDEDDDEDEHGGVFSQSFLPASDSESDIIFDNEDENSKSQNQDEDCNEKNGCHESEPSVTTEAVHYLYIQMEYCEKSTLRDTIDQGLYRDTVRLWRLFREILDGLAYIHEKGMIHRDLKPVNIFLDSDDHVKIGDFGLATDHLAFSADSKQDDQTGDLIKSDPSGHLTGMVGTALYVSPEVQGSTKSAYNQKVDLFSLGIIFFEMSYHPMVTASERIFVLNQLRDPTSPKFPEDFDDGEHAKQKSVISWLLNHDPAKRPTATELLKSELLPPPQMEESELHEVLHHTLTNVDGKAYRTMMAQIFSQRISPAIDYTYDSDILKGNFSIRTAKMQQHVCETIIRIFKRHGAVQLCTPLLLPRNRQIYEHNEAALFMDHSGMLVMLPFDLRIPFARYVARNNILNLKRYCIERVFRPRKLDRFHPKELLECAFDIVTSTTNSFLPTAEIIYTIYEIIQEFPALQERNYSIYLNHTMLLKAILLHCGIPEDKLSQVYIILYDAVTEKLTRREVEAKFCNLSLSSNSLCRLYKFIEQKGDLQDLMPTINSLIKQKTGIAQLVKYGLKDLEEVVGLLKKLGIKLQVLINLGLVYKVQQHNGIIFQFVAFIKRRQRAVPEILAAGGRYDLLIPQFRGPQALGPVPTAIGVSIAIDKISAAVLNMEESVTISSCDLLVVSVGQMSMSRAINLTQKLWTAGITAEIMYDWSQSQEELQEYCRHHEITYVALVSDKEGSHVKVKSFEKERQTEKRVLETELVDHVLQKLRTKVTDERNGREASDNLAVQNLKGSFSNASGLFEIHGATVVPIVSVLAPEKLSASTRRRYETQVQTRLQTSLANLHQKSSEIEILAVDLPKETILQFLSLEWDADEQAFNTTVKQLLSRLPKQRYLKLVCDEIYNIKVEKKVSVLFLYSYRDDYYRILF
With `CNC(=O)c1n[nH]c2c(F)c(-c3c(F)ccc(NS(=O)(=O)c4cc(F)cnc4OC)c3F)ncc12` [Example 70, 6-[2,6-Difluoro-3-(5-fluoro-2-methoxypyridine-3-sulfonamido)phenyl]-7-fluoro-N-methyl-1H-pyrazolo[4,3-c]pyridine-3-carboxamide], the IC50 – broadly, the concentration that inhibits the measured activity by half – was under 500 nM.
The compound `CCCNC(=O)c1n[nH]c2c(F)c(-c3c(F)ccc(NS(=O)(=O)c4cc(Cl)cnc4OC)c3F)ccc12` [Example 58, 6-[3-(5-Chloro-2-methoxypyridine-3-sulfonamido)-2,6-difluorophenyl]-7-fluoro-N-propyl-1H-indazole-3-carboxamide] showed an IC50 of under 500 nM.
Same read-out and setting: as for `CNC(=O)c1n[nH]c2c(F)c(-c3c(F)ccc(NS(=O)(=O)c4cc(Cl)cnc4OC(F)F)c3F)ccc12` [Example 45, 6-[3-[5-chloro-2-(difluoromethoxy)pyridine-3-sulfonamido]-2,6-difluorophenyl]-7-fluoro-N-methyl-1H-indazole-3-carboxamide], the figure is under 500 nM; as for `CNC(=O)c1n[nH]c2c(F)c(-c3c(F)ccc(NS(=O)(=O)c4cc(C#N)cnc4OC)c3F)ncc12` [Example 71, 6-[3-(5-Cyano-2-methoxypyridine-3-sulfonamido)-2,6-difluorophenyl]-7-fluoro-N-methyl-1H-pyrazolo[4,3-c]pyridine-3-carboxamide], under 500 nM.
Regarding `COc1ncc(Cl)cc1S(=O)(=O)Nc1ccc(F)c(-c2ccc3c(C(=O)NC4CCNC4)n[nH]c3c2F)c1F` (stereo not shown) [Example 57, 6-[3-(5-Chloro-2-methoxypyridine-3-sulfonamido)-2,6-difluorophenyl]-7-fluoro-N-(pyrrolidin-3-yl)-1H-indazole-3-carboxamide], the IC50 was under 500 nM.
On the same count and under the same terms, as for `CNC(=O)c1n[nH]c2c(F)c(-c3c(F)ccc(NS(=O)(=O)c4cc(Cl)cnc4C)c3F)ncc12` [Example 72, 6-[3-(5-Chloro-2-methylpyridine-3-sulfonamido)-2,6-difluorophenyl]-7-fluoro-N-methyl-1H-pyrazolo[4,3-c]pyridine-3-carboxamide], the figure is under 500 nM.
Take `CNC(=O)c1n[nH]c2c(F)c(-c3c(F)ccc(NS(=O)(=O)c4cc(Cl)cnc4OC)c3F)cc(C)c12` [Example 47, 6-[3-(5-chloro-2-methoxypyridine-3-sulfonamido)-2,6-difluorophenyl]-7-fluoro-N,4-dimethyl-1H-indazole-3-carboxamide]: the IC50 was under 500 nM.
On the same count and under the same terms, as for `CNC(=O)c1n[nH]c2c(F)c(-c3c(F)ccc(NS(=O)(=O)c4cccc5occc45)c3F)ccc12` [Example 61, 6-[3-(1-Benzofuran-4-sulfonamido)-2,6-difluorophenyl]-7-fluoro-N-methyl-1H-indazole-3-carboxamide], the figure is under 500 nM.
The same measure, in the same setting: as for `CNC(=O)c1n[nH]c2c(F)c(-c3c(F)ccc(NS(=O)(=O)c4cccc5[nH]cnc45)c3F)ccc12` [Example 62, 6-[3-(1H-1,3-Benzodiazole-4-sulfonamido)-2,6-difluorophenyl]-7-fluoro-N-methyl-1H-indazole-3-carboxamide], the figure is 500 to 2500 nM.
Same read-out and setting: as for `COc1ncc(Cl)cc1S(=O)(=O)Nc1ccc(F)c(-c2ccc3c(-c4ncco4)n[nH]c3c2F)c1F` [Example 64, 5-chloro-N-[2,4-difluoro-3-[7-fluoro-3-(1,3-oxazol-2-yl)-1H-indazol-6-yl]phenyl]-2-methoxypyridine-3-sulfonamide], the figure is under 500 nM; as for `CNC(=O)c1n[nH]c2c(F)c(-c3c(F)ccc(NS(=O)(=O)c4cc(F)cnc4C)c3F)ccc12` [Example 65, 6-[2,6-difluoro-3-(5-fluoro-2-methylpyridine-3-sulfonamido)phenyl]-7-fluoro-N-methyl-1H-indazole-3-carboxamide], under 500 nM; as for `CNC(=O)c1n[nH]c2c(F)c(-c3c(F)ccc(NS(=O)(=O)c4cc(C#N)cnc4OC(F)F)c3F)ccc12` [Example 46, 6-[3-[5-Cyano-2-(difluoromethoxy)pyridine-3-sulfonamido]-2,6-difluorophenyl]-7-fluoro-N-methyl-1H-indazole-3-carboxamide], under 500 nM.
In turn, `CNC(=O)c1n[nH]c2c(F)c(-c3c(F)ccc(NS(=O)(=O)c4cc(Cl)cnc4OC)c3F)ncc12` [Example 67, 6-[3-(5-Chloro-2-methoxypyridine-3-sulfonamido)-2,6-difluorophenyl]-7-fluoro-N-methyl-1H-pyrazolo[4,3-c]pyridine-3-carboxamide] registered an IC50 of under 500 nM.
`CNC(=O)c1n[nH]c2c(F)c(-c3c(F)ccc(NS(=O)(=O)c4cc(F)cnc4C)c3F)ncc12` [Example 66, 6-[2,6-Difluoro-3-(5-fluoro-2-methylpyridine-3-sulfonamido)phenyl]-7-fluoro-N-methyl-1H-pyrazolo[4,3-c]pyridine-3-carboxamide] came in with an IC50 of under 500 nM.
The same measure, in the same setting: the same measure for `CNC(=O)c1n[nH]c2c(F)c(-c3c(F)ccc(NS(=O)(=O)c4cccc(CO)c4)c3F)ccc12` [Example 41, 6-[2,6-Difluoro-3-[3-(hydroxymethyl)benzenesulfonamido]phenyl]-7-fluoro-N-methyl-1H-indazole-3-carboxamide]: 500 to 2500 nM.

A further experiment addresses T1, GCN2. The experiment is described as follows: TR-FRET biochemical assay for inhibition of GCN2 (Example 108, for Examples 73-105). For orientation: In TR-FRET formats the signal depends on donor and acceptor labels being close together.
With `COc1ncc(Cl)cc1S(=O)(=O)Nc1ccc(F)c(-c2ccc3c(C(=O)NCCS(C)(=O)=O)n[nH]c3c2F)c1F` [Example 84, 6-[3-(5-Chloro-2-methoxypyridine-3-sulfonamido)-2,6-difluorophenyl]-7-fluoro-N-(2-methanesulfonylethyl)-1H-indazole-3-carboxamide], the IC50 is under 500 nM.
Still for that read-out and setting: as for `COc1ncc(Cl)cc1S(=O)(=O)Nc1ccc(F)c(-c2ccc3c(C(=O)NC4CC4)n[nH]c3c2F)c1F` [Example 81, 6-[3-(5-Chloro-2-methoxypyridine-3-sulfonamido)-2,6-difluorophenyl]-N-cyclopropyl-7-fluoro-1H-indazole-3-carboxamide], the figure is under 500 nM; as for `CNC(=O)c1n[nH]c2c(F)c(-c3c(F)ccc(NS(=O)(=O)C4CCOCC4)c3F)ccc12` [Example 75, 6-[2,6-difluoro-3-(oxane-4-sulfonamido)phenyl]-7-fluoro-N-methyl-1H-indazole-3-carboxamide], 2500 to 10000 nM; as for `COc1ncc(Cl)cc1S(=O)(=O)Nc1ccc(F)c(-c2ccc3c(C(=O)NCC4CCOCC4)n[nH]c3c2F)c1F` [Example 82], under 500 nM.
`COc1ncc(Cl)cc1S(=O)(=O)Nc1ccc(F)c(-c2ccc3c(C(=O)NC4CCCCC4O)n[nH]c3c2F)c1F` (stereo not shown) [Example 88, 6-[3-(5-Chloro-2-methoxypyridine-3-sulfonamido)-2,6-difluorophenyl]-7-fluoro-N-(2-hydroxycyclohexyl)-1H-indazole-3-carboxamide] yielded an IC50 of under 500 nM.
In turn, `COc1ncc(Cl)cc1S(=O)(=O)Nc1ccc(F)c(-c2ccc3c(C(=O)NC4CCC(=O)CC4)n[nH]c3c2F)c1F` [Example 96, 6-[3-(5-Chloro-2-methoxypyridine-3-sulfonamido)-2,6-difluorophenyl]-7-fluoro-N-(4-oxocyclohexyl)-1H-indazole-3-carboxamide] yielded an IC50 of under 500 nM.
Same read-out and setting: as for `COc1ncc(Cl)cc1S(=O)(=O)Nc1ccc(F)c(-c2ccc3c(C(=O)NC4CCCC(N)C4)n[nH]c3c2F)c1F` (stereo not shown) [Example 98, N-(3-Aminocyclohexyl)-6-[3-(5-chloro-2-methoxypyridine-3-sulfonamido)-2,6-difluorophenyl]-7-fluoro-1H-indazole-3-carboxamide], the figure is under 500 nM.
